The source of these data is paper PMC5309220, “Screening for Small Molecule Inhibitors of Statin-Induced APP C-terminal Toxic Fragment Production” (Frontiers in Pharmacology, 2017).

The test system of one data set is CHO-7W cells. As to the kind of experiment: Total protein in CHO-7W cell lysates (Coomassie Plus). In kind it is cell-based, Chinese hamster. To be noted: n = 1; for effect on total protein concentration with cerivastatin (in words): QVD, spiperone, 3′fluorobenzylspiperone at 30, 10, and 10 μM, respectively, with 10 μM cerivastatin. The procedure:
(§1) In an additional study (Supplementary Figure S5A), measurement of the α secretase fragment of full length (FL) APP – soluble APP alpha (sAPPα) – was performed using cell media by ELISA (IBL). Furthermore, in two studies (Supplementary Figures S5B,C), total protein levels in CHO-7W cell lysates were determined by Coomassie Plus protein assay (Pierce).
(§2) Supplementary file Data_Sheet_1.docx: FIGURE S5 Effect of lead compounds on protein concentration and sAPPα. […] (B) Total protein from lysates of CHO-7W cells treated with either 30 μM QVD or 10 μM Sp alone for 24 h was similar to the vehicle control (n = 1). (C) Total protein from CHO-7W lysates treated with 10 μM CS alone or in combination with QVD, Sp, or 3′F-Sp at the concentrations shown increased (n = 1). Statistical analysis was performed using one-way ANOVA and Dunnett post-test for comparison to the 10 μM CS control (^∗∗p < 0.001, ^∗∗∗p < 0.0001). Click here for additional data file.

The nature of data set [1]: PAMPA / immobilized artificial membrane (IAM.PC.DD2) chromatography. Type of data set: in vitro ADME. (In general: PAMPA measures passive passage across an artificial lipid membrane.)
Data set [2] has as its system cerivastatin-induced APPΔC31 production in CHO-7W cells. The data set is described as follows: APPΔC31 ELISA validation assay, cerivastatin-induced. Type of data set: cell-based, Chinese hamster. Particulars: 10 μM cerivastatin, 24 h; for APPΔC31 Inh. (mean %): CHO-7W cells, test concentration not given. Here is the method:
The APPΔC31 ELISA developed in partnership with Enzo Life Sciences (ADI-900-227) follows a standard sandwich ELISA design wherein a monoclonal N-terminal APP-specific antibody is used to coat the wells of the microtiter plate (capture antibody) and the anti-APPΔC31 cleavage site-specific polyclonal antibody serves as the detection antibody. An HRP-conjugated secondary antibody is then added and a colorimetric signal generated by enzymatic conversion of the tetramethylbenzidine (TMB) substrate. Protein levels were first determined using a colorimetric coomassie assay (Coomassie Plus, Thermo).
A subset of hits from our HTS was validated in a secondary assay. […] Thapsigargin also acts as a sarco/endoplasmic reticulum calcium ATPase (SERCA) inhibitor. Therefore, another SERCA inhibitor, 2,5-Di-tert-butylhydroquinone, was also added to the testing. In this secondary assay, CHO-7W cells were cultured as described above and plated into 24-well dishes at ∼200K/well. […] These hits were selected for their potency in primary screen, their structural features, their known activities, and availability of compound for additional testing. There were cerivastatin-only (negative control), + QVD-OPh (positive control), and for viability, vehicle-only (negative) controls. Cells were harvested by removing the media to a tube, adding […] trypsin to detach cells then neutralizing with media. […] Cells were centrifuged at 5000 rpm (2300 × g) for 5 min. Cell pellets were frozen until use. Forty μL cold RIPA buffer plus complete protease inhibitors (Roche) was added to each pellet and the pellets were reconstituted by pipetting up and down, incubating on ice for 30 min, vortexing, and centrifugation as above. Cell lysate supernatants were then assayed by APPΔC31 ELISA as described above. For most compounds, multiple/repeat studies were performed and two wells used for each condition. Statistical comparison was performed using one-way ANOVA for multiple comparisons, with a Dunnett post hoc test to compare each condition to the control. Further dose-response studies were performed on select compounds.
On the technique in general: An ELISA detects its analyte on a solid surface through an enzyme-linked reagent.

Data set [3] concerns cerivastatin-induced APPΔC31 in I5 mouse hippocampal slice cultures. The data set is described as follows: Ex vivo organotypic hippocampal slice cultures, APPΔC31 ELISA. Particulars: 72 h, read-out: inhibition of APPΔC31 production.
Description: I5 mice originally purchased from Jackson labs (JAX B6.Cg-Tg(PDGFB-APP)5Lms/J) were bred and maintained in the Buck Institute vivarium facility, and used under the guidelines of an approved institutional IACUC protocol. P5–7 day mice were sacrificed using CO2 gas and cervical dislocation according to established IACUC protocols. Brains were removed, and under sterile conditions, hippocampi were dissected out on ice in Hybernate media + 1:400 Glutamax, 1:100 Pen/Strep and 1:50 B27 supplement (all Life Technologies). Hippocampi were laid parallel on a tissue chopper (McIlwain) in a small amount of media and sliced at 400 μm thick. Millicell-CM 6-well cell culture inserts (Millipore, 0.4 μm) were prehydrated by pipetting 750 μL culture media under each well and placing in a 35°C, 5% CO2 incubator for at least 30 min. Culture media: 100 mL MEM-HEPES, 50 mL HBSS, 50 mL HI horse serum, 1 mL 100x Pen/Strep (all Gibco), 1.3 g (6.5 mg/mL) glucose, and 2 mL 200 μM (2 mM) Glutamax, sterile filtered. […] Protein was quantitated for each sample using Coomassie Plus reagent (Thermo). […]
Tissue was harvested and lysates analyzed for APPΔC31 by ELISA. Lysates were protein normalized and expressed as a % of control.
The next data set relates to sAPPα in CHO-7W cultures. The data set is described as follows: sAPPα ELISA in cell media. Particulars: QVD, Sp, 3′F-Sp at 10, 30, and 30 mM, respectively (so in the source), with 10 μM cerivastatin, 24 h, vs CS alone, n = 2. Type of data set: cell-based, Chinese hamster. The procedure:
as §1, §2

For data set [4], the system named is cerivastatin-induced APPΔC31 in CHO-7W cells. As to the kind of experiment: APPΔC31 immunoblot of CHO-7W cell lysates. In kind it is cell-based, Chinese hamster. To be noted: compound at 30 μM, 10 μM cerivastatin, 24 h. Here is the method:
For immunoprecipitation, approximately 300 μg cell lysate supernatants were brought to 250 μL with cold RIPA + PI buffer in microfuge tubes. One μL of 6E10 APP antibody (Covance) was added and the mixture was rotated overnight in a cold room. The next day, 25 μL of protein A/G beads (Santa Cruz Biotech) were added and the samples were rotated for 1.5 h in the cold room. The beads were then centrifuged down and washed four times with cold PBS. Forty μL 1x LDS sample buffer + DTT was added to the pellets, which were heated to 70°C for 10 min, vortexed and centrifuged. Supernatants were loaded onto Nupage 4–12% Bis-Tris gels (Life Technologies) for electrophoresis and were then transferred to 0.2 μm PVDF membrane for immunoblotting with the anti-APPΔC31 antibody.
(A) CHO-7W cells were treated with 10 μM cerivastatin (CS) along with varying concentrations of Q-VD-OPh (QVD) for 24 h. Cell lysates were prepared and immunoprecipitated with anti-APP (6E10) overnight at 4°C and then incubation with Protein A/G beads (Santa Cruz Biotech). The resulting pellets were incubated, electrophoresed using Nupage 4–12% Bis-Tris gels (Life Technologies) and the 0.2 μm PVDF membrane probed with anti-APPΔC31. (B) CHO-7W cells were treated with increasing concentrations of CS or 10 μM CS together with increasing concentrations of 3′-fluorobenzylspiperone maleate (3′-F-Sp) or 30 μM QVD for 24 h. […]
For orientation: In western blotting, separated proteins are transferred to a membrane and probed.

Data set [5] has the same test system. The data set is described as follows: APPΔC31 AlphaLISA dose-response, cerivastatin-induced. In kind it is cell-based, Chinese hamster. Particulars: 24 h; for IC50: Cricetulus griseus. Here is the method: The APPΔC31 AlphaLISA assay (Figures 2C–E) was run directly in the plate with the cell lysate as described above in “AlphaLISA to detect APPΔC31.” APPΔC31 levels were measured using the Envision plate reader and data were normalized to DMSO (100% APPΔC31 production) and Q-VD-OPh (MP Biomedicals) pan-caspase inhibitor at 30 μM (0%); these controls were present on each plate. In addition, some compounds of interest were further analyzed in a dose-response curve to determine IC50 values.
The broad-spectrum pan-caspase inhibitor Q-VD-OPh served as the positive control.
Lysates were prepared and APPΔC31 determined by ELISA. (B) CHO-7W cells were treated with 10 μM cerivastatin plus increasing doses of caspase and MEK inhibitors for 24 h. Lysates were prepared and APPΔC31 determined by AlphaLISA. Click here for additional data file.

For data set [6], the system named is APPΔC31 production in CHO-7W cells. As to the kind of experiment: Statin induction of APPΔC31, ELISA. To be noted: 24 h. Type of data set: cell-based, Chinese hamster. The procedure:
An HRP-conjugated secondary antibody is then added and a colorimetric signal generated by enzymatic conversion of the tetramethylbenzidine (TMB) substrate. Protein levels were first determined using a colorimetric coomassie assay (Coomassie Plus, Thermo).
APPΔC31 was determined in cell lysates by ELISA.

The target of the next data set is caspase 8. Particulars: potency stated for the inhibitor, no reference given; cited from earlier work.
A further data set can be described thus: in vitro. To be noted: Chinese hamster.
[7] abbreviates: AlphaLISA dose-response (Figure 5C), cerivastatin-stimulated.

Structures are written as SMILES. “Also recorded” adds a separate entry of the source. Where a name gives a salt, the structure may show the parent alone. Read-outs that look alike come from different tables or passages of the source.

For the molecule `O=C(CCCN1CCC2(CC1)C(=O)N(Cc1cccc(F)c1)CN2c1ccccc1)c1ccc(F)cc1` [3′Fluorobenzylspiperone maleate, 3′-fluorobenzylspiperone maleate], the “effect on total protein concentration with cerivastatin (in words)” value in the data set on CHO-7W cells is “increased total protein concentration”. Moreover, the “KIAM (IAM capacity factor)” value in data set [1] (IAM.PC.DD2 column, water/methanol gradient) came out at 3.2. The “KIAM/MW^4 x 10^10” value in data set [1] (IAM.PC.DD2 column, correlation of Yoon et al. (2006)) is on record as 0.50. Also, the “BBB Penetration Prediction” value in [1] (from KIAM/MW^4 x 10^10, cut-off 0.85) is on record as “low (If KIAM/MW^4x10^10 < 0.85 the BBB penetration is predicted to be low)”. Besides, the “APPΔC31 Inh. (mean %)” value in [2] worked out at 78%. For the same molecule, in data set [3], the inhibition at 30 µM was approximately 82%. For the same molecule, in the data set on sAPPα in CHO-7W cultures, the “effect on sAPPα (in words)” value is “increased sAPPα”. The “effect on CS-induced APPΔC31 by immunoblot (in words)” value in data set [4] is “decreased”. Moreover, the “% Min (APPΔC31 dose-response)” value in data set [5] (setting [7]) stood at 25%. The IC50 in data set [5] ((A) AlphaLISA, cerivastatin-induced, read-out: IC50 (A), APPΔC31 inhibition) is 2.2 µM.
As for `CC(C)C(NC(=O)c1ccc2ccccc2n1)C(=O)NC(CC(=O)O)C(=O)COc1c(F)cccc1F` (centres unmarked) [QVD-OPh, Q-VD-OPh], the “effect on protein concentration in lysates, compound alone (in words)” value in the data set with CHO-7W cells (QVD alone at 30 μM, spiperone alone at 10 μM, 24 h, vs vehicle) was “did not lower protein concentration”. In addition, the “effect on total protein concentration with cerivastatin (in words)” value in the data set with CHO-7W cells is given as “increased total protein concentration”. Moreover, the “APPΔC31 Inh. (mean %)” value in data set [2] was determined as 95%. Moreover, the IC50 in data set [2] (Cricetulus griseus, ELISA, CHO-7W, read-out: IC50 (E), APPΔC31 inhibition) was determined as 7.5 µM; in data set [5] (AlphaLISA dose-response (Figure 5C), cerivastatin-stimulated, read-out: IC50, APPΔC31 inhibition), 7.5 µM. For the same molecule, in the data set on sAPPα in CHO-7W cultures, the “effect on sAPPα (in words)” value is reported as “increased sAPPα”. For the same molecule, the “effect on simvastatin-induced APPΔC31 increase (in words)” value in [6] (30 μM inhibitor plus 5 μM simvastatin) is listed as “prevented 5 μM simvastatin-induced APPΔC31 increases”. In data set [4], the “effect on CS-induced APPΔC31 by immunoblot (in words)” value is reported as “eliminated the cerivastatin-induced APPΔC31 increase”. Besides, in data set [5] (setting [7]), the “% Min (APPΔC31 dose-response)” value is given as 0%.
As to `FC(F)(F)c1cccc(-c2csc(C3COc4ccccc4O3)n2)c1` (centres unmarked) [Caspase Inhibitor X], the IC50 at caspase 8 was 2.7 µM. The “inhibition of cerivastatin-induced APPΔC31 (in words)” value in data set [5] (highest concentration tested (30 μM), 10 μM cerivastatin, AlphaLISA) is listed as “somewhat effective”.
`COCc1c(C(C)C)nc(C(C)C)c(/C=C/[C@@H](O)C[C@@H](O)CC(=O)O)c1-c1ccc(F)cc1` [Cerivastatin] returned a viability at 24 h, 10 µM in the data set “in vitro” of 15%. In addition, in data set [6] (statins at 1, 5 and 10 μM), the “induction of APPΔC31 (in words)” value was “most effective; also recorded: did so at 1, 5, and 10 μM”.

Broadly, the inhibition is the relative decrease from the control value, in per cent. What is called IC50 is the concentration at which inhibition is half-maximal. Broadly, the viability is a read-out of living cells in per cent, often relative to untreated cells. Read a low viability as more harm to the cells.
